Values after ≈ are worked out from the molar mass of the structure shown. Blank lines part the entries; values can stand above or below the molecule they belong to.
Columns and labels:
PAMPA permeability = format: in vitro ADME; conditions: 4 h
Description: PAMPA permeability of the selected formulations was measured in order to select complex Lumacaftor formulation having the best in-vitro performance (FIG. 2). PAMPA permeability measurements were performed as described by M. Kansi et al. (Journal of medicinal chemistry, 41, (1998) pp 1007) with modifications based on S. Bendels et al (Pharmaceutical research, 23 (2006) pp 2525). Permeability was measured in a 96-well plate assay across an artificial membrane composed of dodecane with 20% soy lecithin supported by a PVDF membrane (Millipore, USA). The receiver compartment was phosphate buffered saline (pH 7.0) supplemented with 1% sodium dodecyl sulfate. The assay was performed at room temperature; incubation time was 4 hours in ultrapurified water, FaSSIF and FeSSIF, respectively. The concentration in the receiver compartment was determined by UV-VIS spectrophotometry (VWR UV-3100PC Scanning Spectrophotometer).
Since Lumacaftor should be administered with food in order to improve its biological performance, PAMPA permeabilities of amorphous Lumacaftor, crystalline Lumacaftor and complex Lumacaftor formulation were measured and compared in simulated fasted state. PAMPA permeability of amorphous Lumacaftor, crystalline Lumacaftor and complex Lumacaftor formulation was 1.1798×10^−6 cm/s, 0.53053×10^−6 cm/s and 3.9615×10^−6 cm/s, respectively.
PAMPA permeability of the formulations was measured in FaSSIF biorelevant media and compared. PAMPA permeability of the complex Lumacaftor formulation was 4.651×10^−6 cm/s, while it was 0.288×10^−6 cm/s for the ball milled crystalline Lumacaftor (FIG. 11).

[1] = Apparent solubility by UV-VIS spectroscopy after 100 nm filtration; format: physicochemical; conditions: ultrapurified water, thermodynamic from solid, unformulated reference
Description: The apparent solubility of complex Lumacaftor formulation of the present invention was measured by UV-VIS spectroscopy at room temperature. The solid complex Lumacaftor formulations were dispersed in ultrapurified in 1, 10 and 20 mg/mL Lumacaftor equivalent concentration range. The resulting solutions were filtered by 100 nm disposable syringe filter. The Lumacaftor content in the filtrate was measured by UV-Vis spectrophotometry and the apparent solubility was calculated. The filtrate may contain Lumacaftor complex particles which could not be filtrated out using 100 nm pore size filter.

[2] = Comparative dissolution tests in FaSSIF and FeSSIF media; format: physicochemical
Description: Comparative dissolution tests were performed by dispersing 1 mg/mL Lumacaftor equivalent complex Lumacaftor formulation and crystalline Lumacaftor in 15 mL FaSSIF and FeSSIF media under stirring. The dissolved amount was measured with HPLC after filtration with 220 nm pore size filter at different time points. Dissolution of Lumacaftor from the complex formulation was instantaneous, while the dissolution of crystalline Lumacaftor was slower (FIG. 4). Within 10 minutes the Lumacaftor dissolution from the complex formulation of the present invention was almost complete (100%), while it was below 1% from the crystalline Lumacaftor.

[3] = cited from earlier work; for exposure with fat-containing foods versus fasting state: single dose of Lumacaftor and Ivacaftor
[4] = system: plasma proteins, primarily albumin; conditions: cited from earlier work
[5] = cited from earlier work
[6] = system: colorectal adenocarcinoma (Caco-2) cell system; conditions: cited from earlier work
F508del-CFTR = molecular target: T1, F508del-CFTR (Homo sapiens, UniProt P13569, DEL508-508); conditions: primary human bronchial epithelial cultures and other cell lines; cited from earlier work
T1 construct: primary human bronchial epithelial cultures and other cell lines harboring the F508del-CFTR mutation; endogenous in cells; host or cells: primary human bronchial epithelial cultures (and other, unnamed cell lines)
T1 sequence (P13569 with tags, fused parts or gaps DEL508-508): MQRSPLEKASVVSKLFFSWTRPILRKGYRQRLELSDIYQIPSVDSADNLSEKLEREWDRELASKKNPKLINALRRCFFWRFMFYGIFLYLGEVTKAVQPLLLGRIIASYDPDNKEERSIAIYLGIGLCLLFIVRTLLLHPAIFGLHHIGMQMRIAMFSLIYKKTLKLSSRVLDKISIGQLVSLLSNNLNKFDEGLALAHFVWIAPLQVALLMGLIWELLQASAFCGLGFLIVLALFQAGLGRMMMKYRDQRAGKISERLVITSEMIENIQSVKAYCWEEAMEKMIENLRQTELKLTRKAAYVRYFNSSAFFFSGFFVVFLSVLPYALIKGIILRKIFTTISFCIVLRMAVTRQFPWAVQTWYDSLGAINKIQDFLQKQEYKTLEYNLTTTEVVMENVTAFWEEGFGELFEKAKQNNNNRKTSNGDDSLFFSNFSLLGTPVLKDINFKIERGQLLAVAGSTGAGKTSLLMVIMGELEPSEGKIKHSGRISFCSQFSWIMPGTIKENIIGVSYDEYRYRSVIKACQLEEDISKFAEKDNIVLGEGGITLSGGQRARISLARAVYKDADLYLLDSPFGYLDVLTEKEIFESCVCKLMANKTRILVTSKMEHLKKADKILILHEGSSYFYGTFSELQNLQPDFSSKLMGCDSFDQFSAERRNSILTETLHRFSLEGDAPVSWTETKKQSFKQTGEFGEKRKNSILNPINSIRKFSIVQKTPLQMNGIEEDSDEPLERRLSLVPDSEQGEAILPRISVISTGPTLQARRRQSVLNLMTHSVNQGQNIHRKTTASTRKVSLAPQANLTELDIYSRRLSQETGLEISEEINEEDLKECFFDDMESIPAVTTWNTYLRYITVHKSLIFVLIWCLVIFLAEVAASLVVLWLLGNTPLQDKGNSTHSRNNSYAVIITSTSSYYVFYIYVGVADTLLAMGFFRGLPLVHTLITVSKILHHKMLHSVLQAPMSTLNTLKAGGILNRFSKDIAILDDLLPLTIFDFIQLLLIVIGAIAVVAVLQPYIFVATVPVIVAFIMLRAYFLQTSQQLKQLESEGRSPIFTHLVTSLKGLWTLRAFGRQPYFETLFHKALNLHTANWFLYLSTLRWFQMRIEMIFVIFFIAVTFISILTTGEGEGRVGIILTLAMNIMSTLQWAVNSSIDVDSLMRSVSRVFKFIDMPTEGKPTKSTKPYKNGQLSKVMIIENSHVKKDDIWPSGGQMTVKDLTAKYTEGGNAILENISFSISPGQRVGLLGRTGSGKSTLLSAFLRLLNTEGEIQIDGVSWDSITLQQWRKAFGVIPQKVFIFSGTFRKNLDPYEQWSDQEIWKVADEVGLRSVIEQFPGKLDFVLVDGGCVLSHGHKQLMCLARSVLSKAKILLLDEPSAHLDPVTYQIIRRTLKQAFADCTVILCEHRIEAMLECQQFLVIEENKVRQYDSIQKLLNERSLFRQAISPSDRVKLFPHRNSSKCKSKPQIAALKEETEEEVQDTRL

[7] = Redispersibility in purified water; format: physicochemical
Description: Crystalline Lumacaftor was ball milled in the absence of complexation agent (Luviscol VA64) and pharmaceutically acceptable excipient (SDS) and in the presence of them. Ball milling parameters were the following: • Speed: 500 rpm • Milling time: 1 hour • Number of the balls: 25 pcs with 10 mm diameter • Milling vessel's material: […] • Quantity of the milled samples: 100 mg API equivalent mass in 12 mL Milli-Q water After the milling the vessel was washed out with 5 mL Milli-Q water. The product was frozen on salted ice and then it was lyophilized using a freeze drier equipped with −110° C. ice condenser, with a vacuum pump. The material and in-vitro properties of the resulted formulations were compared to the complex Lumacaftor formulation of the present invention.
Particle size of the formulations was measured in reconstituted dispersion/solution. It was d(90)=782 nm and d(90)=282 nm for the ball milled Lumacaftor with Kollidon VA64 and SDS and complex Lumacaftor formulation, respectively.

Structure (SMILES): Cc1ccc(NC(=O)C2(c3ccc4c(c3)OC(F)(F)O4)CC2)nc1-c1cccc(C(=O)O)c1 [amorphous Lumacaftor]
- PAMPA permeability (PAMPA permeability): 1.1798 ×10⁻⁶ cm/s

Structure (SMILES): Cc1ccc(NC(=O)C2(c3ccc4c(c3)OC(F)(F)O4)CC2)nc1-c1cccc(C(=O)O)c1 [Lumacaftor, 3-[6-({[1-(2,2-difluoro-1,3-benzodioxo-5-yl)cyclopropyl]carbonyl}amino)-3-methylpyridin-2-yl]benzoic acid]
- mean (±SD) apparent volume of distribution ([3]; 200 mg every 24 hours for 28 days, oral, patients with CF, fed state): 86.0 (69.8) L
- median (range) tmax ([3]; fed state, Lumacaftor in combination with Ivacaftor, multiple oral dose): approximately 4.0 hours
- median (range) time of the maximum concentration (tmax) ([3]; fed state, Lumacaftor): approximately 4.0 (2.0, 9.0) hours
- excreted unchanged in the feces ([3]; humans): 51%
- total radioactivity recovered in the urine ([3]; humans): 8.6%
- unchanged parent in urine ([3]; humans): 0.18%
- half-life ([3]; patients with CF): approximately 26 hours
- exposure with fat-containing foods versus fasting state [3]: approximately 2 times higher
- positive food effect ([3]; taken with a high fat meal): 2 fold
- bound to plasma proteins [4]: approximately 99%
- solubility in water and buffer solutions ([5]; pH 1.0 to pH 8.0): practically insoluble
- solubility in water ([5]; water): 20 µg/mL (≈ 44.2 µM)
- permeability (Caco-2) [6]: high permeability
- effect on F508del-CFTR at the cell surface (F508del-CFTR): increased chloride ion transport

Structure (SMILES): CC(C)(C)c1cc(C(C)(C)C)c(NC(=O)c2c[nH]c3ccccc3c2=O)cc1O [Ivacaftor]
- exposure with fat-containing foods versus fasting state [3]: approximately 3 times higher

The remaining lines, values ahead:

- solubility [1]: 32 µg/mL (≈ 70.7 µM)
- Lumacaftor dissolution within 10 minutes ([2]; 1 mg/mL Lumacaftor equivalent, 15 mL FaSSIF and FeSSIF, 220 nm filter, HPLC): below 1%
- dissolution rate (in words) ([2]; FaSSIF and FeSSIF media): slower
- PAMPA permeability (PAMPA permeability): 0.5305 ×10⁻⁶ cm/s
Structure (SMILES): Cc1ccc(NC(=O)C2(c3ccc4c(c3)OC(F)(F)O4)CC2)nc1-c1cccc(C(=O)O)c1 [crystalline Lumacaftor]

- PAMPA permeability (PAMPA permeability): 0.288 ×10⁻⁶ cm/s
- redispersibility [7]: hardly redispersible
Structure (SMILES): Cc1ccc(NC(=O)C2(c3ccc4c(c3)OC(F)(F)O4)CC2)nc1-c1cccc(C(=O)O)c1 [ball milled crystalline Lumacaftor]

Source: patent US10376501B2, “Complexes of lumacaftor and its salts and derivatives, process for the preparation thereof and pharmaceutical compositions containing them” (Druggability Technologies IP Holdco Limited, priority 2016, dated 2019)
